Laboratory results as given in the NIST ThermoML archive (doi:10.1016/j.jct.2012.11.032).
Numbers after ± are expanded uncertainties.

Assay: xn = mol fraction of the nth substance listed
Settings: 101 kPa, Liquid; for speed of sound: Sing-around technique in a fixed-path interferometer; for mass density: Vibrating tube method

## CCCCCCCCCCCC[n+]1ccn(C)c1.[Cl-] [1-dodecyl-3-methylimidazolium chloride] + O
283 K, x1 = 0.0027
  speed of sound: 1448.4 ± 1.2 m/s
283 K, x1 = 0.003
  speed of sound: 1448.5 ± 1.2 m/s
283 K, x1 = 0.0048
  speed of sound: 1448.8 ± 1.2 m/s
283 K, x1 = 0.0074
  speed of sound: 1449.3 ± 1.2 m/s
283 K, x1 = 0.0094
  speed of sound: 1449.7 ± 1.2 m/s
283 K, x1 = 0.0109
  speed of sound: 1449.9 ± 1.2 m/s
283 K, x1 = 0.0129
  speed of sound: 1450.2 ± 1.2 m/s
283 K, x1 = 0.0145
  speed of sound: 1450.5 ± 1.2 m/s
283 K, x1 = 0.0163
  speed of sound: 1450.8 ± 1.2 m/s
283 K, x1 = 0.0181
  speed of sound: 1451.2 ± 1.2 m/s
283 K, x1 = 0.0208
  speed of sound: 1451.7 ± 1.2 m/s
283 K, x1 = 0.0234
  speed of sound: 1452 ± 1.2 m/s
283 K, x1 = 0.0248
  speed of sound: 1452.2 ± 1.2 m/s
283 K, x1 = 0.0273
  speed of sound: 1452.6 ± 1.2 m/s
283 K, x1 = 0.0286
  speed of sound: 1452.7 ± 1.2 m/s
283 K, x1 = 0.0302
  speed of sound: 1452.8 ± 1.2 m/s
283 K, x1 = 0.0319
  speed of sound: 1453.1 ± 1.2 m/s
283 K, x1 = 0.0341
  speed of sound: 1453.5 ± 1.2 m/s
283 K, x1 = 0.0384
  speed of sound: 1453.5 ± 1.2 m/s
283 K, x1 = 0.0407
  speed of sound: 1453.7 ± 1.2 m/s
283 K, x1 = 0.0428
  speed of sound: 1453.7 ± 1.2 m/s
283 K, x1 = 2.7e-05
  mass density: 999.688 ± 0.1 kg/m3
283 K, x1 = 3e-05
  mass density: 999.704 ± 0.1 kg/m3
283 K, x1 = 4.8e-05
  mass density: 999.71 ± 0.1 kg/m3
283 K, x1 = 7.4e-05
  mass density: 999.71 ± 0.1 kg/m3
283 K, x1 = 9.4e-05
  mass density: 999.705 ± 0.1 kg/m3
283 K, x1 = 0.000109
  mass density: 999.71 ± 0.1 kg/m3
283 K, x1 = 0.000129
  mass density: 999.718 ± 0.1 kg/m3
283 K, x1 = 0.000145
  mass density: 999.717 ± 0.1 kg/m3
283 K, x1 = 0.000163
  mass density: 999.735 ± 0.1 kg/m3
283 K, x1 = 0.000181
  mass density: 999.724 ± 0.1 kg/m3
283 K, x1 = 0.000208
  mass density: 999.73 ± 0.1 kg/m3
283 K, x1 = 0.000234
  mass density: 999.729 ± 0.1 kg/m3
283 K, x1 = 0.000248
  mass density: 999.744 ± 0.1 kg/m3
283 K, x1 = 0.000273
  mass density: 999.743 ± 0.1 kg/m3
283 K, x1 = 0.000286
  mass density: 999.744 ± 0.1 kg/m3
283 K, x1 = 0.000302
  mass density: 999.732 ± 0.1 kg/m3
283 K, x1 = 0.000319
  mass density: 999.749 ± 0.1 kg/m3
283 K, x1 = 0.000341
  mass density: 999.737 ± 0.1 kg/m3
283 K, x1 = 0.000384
  mass density: 999.728 ± 0.1 kg/m3
283 K, x1 = 0.000407
  mass density: 999.721 ± 0.1 kg/m3
283 K, x1 = 0.000428
  mass density: 999.712 ± 0.1 kg/m3
288 K, x1 = 0.0027
  speed of sound: 1466.7 ± 1.2 m/s
288 K, x1 = 0.003
  speed of sound: 1466.8 ± 1.2 m/s
288 K, x1 = 0.0048
  speed of sound: 1467.1 ± 1.2 m/s
288 K, x1 = 0.0074
  speed of sound: 1467.6 ± 1.2 m/s
288 K, x1 = 0.0094
  speed of sound: 1467.9 ± 1.2 m/s
288 K, x1 = 0.0109
  speed of sound: 1468.1 ± 1.2 m/s
288 K, x1 = 0.0129
  speed of sound: 1468.4 ± 1.2 m/s
288 K, x1 = 0.0145
  speed of sound: 1468.6 ± 1.2 m/s
288 K, x1 = 0.0163
  speed of sound: 1468.9 ± 1.2 m/s
288 K, x1 = 0.0181
  speed of sound: 1469.2 ± 1.2 m/s
288 K, x1 = 0.0208
  speed of sound: 1469.7 ± 1.2 m/s
288 K, x1 = 0.0234
  speed of sound: 1470 ± 1.2 m/s
288 K, x1 = 0.0248
  speed of sound: 1470.2 ± 1.2 m/s
288 K, x1 = 0.0273
  speed of sound: 1470.5 ± 1.2 m/s
288 K, x1 = 0.0286
  speed of sound: 1470.6 ± 1.2 m/s
288 K, x1 = 0.0302
  speed of sound: 1470.7 ± 1.2 m/s
288 K, x1 = 0.0319
  speed of sound: 1470.9 ± 1.2 m/s
288 K, x1 = 0.0341
  speed of sound: 1471 ± 1.2 m/s
288 K, x1 = 0.0384
  speed of sound: 1471 ± 1.2 m/s
288 K, x1 = 0.0407
  speed of sound: 1471.2 ± 1.2 m/s
288 K, x1 = 0.0428
  speed of sound: 1471.2 ± 1.2 m/s
288 K, x1 = 2.7e-05
  mass density: 999.099 ± 0.1 kg/m3
288 K, x1 = 3e-05
  mass density: 999.118 ± 0.1 kg/m3
288 K, x1 = 4.8e-05
  mass density: 999.119 ± 0.1 kg/m3
288 K, x1 = 7.4e-05
  mass density: 999.115 ± 0.1 kg/m3
288 K, x1 = 9.4e-05
  mass density: 999.109 ± 0.1 kg/m3
288 K, x1 = 0.000109
  mass density: 999.114 ± 0.1 kg/m3
288 K, x1 = 0.000129
  mass density: 999.12 ± 0.1 kg/m3
288 K, x1 = 0.000145
  mass density: 999.116 ± 0.1 kg/m3
288 K, x1 = 0.000163
  mass density: 999.133 ± 0.1 kg/m3
288 K, x1 = 0.000181
  mass density: 999.119 ± 0.1 kg/m3
288 K, x1 = 0.000208
  mass density: 999.122 ± 0.1 kg/m3
288 K, x1 = 0.000234
  mass density: 999.12 ± 0.1 kg/m3
288 K, x1 = 0.000248
  mass density: 999.133 ± 0.1 kg/m3
288 K, x1 = 0.000273
  mass density: 999.127 ± 0.1 kg/m3
288 K, x1 = 0.000286
  mass density: 999.125 ± 0.1 kg/m3
288 K, x1 = 0.000302
  mass density: 999.113 ± 0.1 kg/m3
288 K, x1 = 0.000319
  mass density: 999.128 ± 0.1 kg/m3
288 K, x1 = 0.000341
  mass density: 999.116 ± 0.1 kg/m3
288 K, x1 = 0.000384
  mass density: 999.108 ± 0.1 kg/m3
288 K, x1 = 0.000407
  mass density: 999.096 ± 0.1 kg/m3
288 K, x1 = 0.000428
  mass density: 999.082 ± 0.1 kg/m3
293 K, x1 = 0.0027
  speed of sound: 1482.9 ± 1.2 m/s
293 K, x1 = 0.003
  speed of sound: 1483 ± 1.2 m/s
293 K, x1 = 0.0048
  speed of sound: 1483.3 ± 1.2 m/s
293 K, x1 = 0.0074
  speed of sound: 1483.7 ± 1.2 m/s
293 K, x1 = 0.0094
  speed of sound: 1484 ± 1.2 m/s
293 K, x1 = 0.0109
  speed of sound: 1484.2 ± 1.2 m/s
293 K, x1 = 0.0129
  speed of sound: 1484.5 ± 1.2 m/s
293 K, x1 = 0.0145
  speed of sound: 1484.7 ± 1.2 m/s
293 K, x1 = 0.0163
  speed of sound: 1485 ± 1.2 m/s
293 K, x1 = 0.0181
  speed of sound: 1485.2 ± 1.2 m/s
293 K, x1 = 0.0208
  speed of sound: 1485.6 ± 1.2 m/s
293 K, x1 = 0.0234
  speed of sound: 1485.9 ± 1.2 m/s
293 K, x1 = 0.0248
  speed of sound: 1486 ± 1.2 m/s
293 K, x1 = 0.0273
  speed of sound: 1486.3 ± 1.2 m/s
293 K, x1 = 0.0286
  speed of sound: 1486.4 ± 1.2 m/s
293 K, x1 = 0.0302
  speed of sound: 1486.5 ± 1.2 m/s
293 K, x1 = 0.0319
  speed of sound: 1486.6 ± 1.2 m/s
293 K, x1 = 0.0341
  speed of sound: 1486.7 ± 1.2 m/s
293 K, x1 = 0.0384
  speed of sound: 1486.7 ± 1.2 m/s
293 K, x1 = 0.0407
  speed of sound: 1486.9 ± 1.2 m/s
293 K, x1 = 0.0428
  speed of sound: 1486.9 ± 1.2 m/s
293 K, x1 = 2.7e-05
  mass density: 998.213 ± 0.1 kg/m3
293 K, x1 = 3e-05
  mass density: 998.232 ± 0.1 kg/m3
293 K, x1 = 4.8e-05
  mass density: 998.233 ± 0.1 kg/m3
293 K, x1 = 7.4e-05
  mass density: 998.224 ± 0.1 kg/m3
293 K, x1 = 9.4e-05
  mass density: 998.217 ± 0.1 kg/m3
293 K, x1 = 0.000109
  mass density: 998.222 ± 0.1 kg/m3
293 K, x1 = 0.000129
  mass density: 998.227 ± 0.1 kg/m3
293 K, x1 = 0.000145
  mass density: 998.219 ± 0.1 kg/m3
293 K, x1 = 0.000163
  mass density: 998.236 ± 0.1 kg/m3
293 K, x1 = 0.000181
  mass density: 998.221 ± 0.1 kg/m3
293 K, x1 = 0.000208
  mass density: 998.22 ± 0.1 kg/m3
293 K, x1 = 0.000234
  mass density: 998.218 ± 0.1 kg/m3
293 K, x1 = 0.000248
  mass density: 998.227 ± 0.1 kg/m3
293 K, x1 = 0.000273
  mass density: 998.218 ± 0.1 kg/m3
293 K, x1 = 0.000286
  mass density: 998.214 ± 0.1 kg/m3
293 K, x1 = 0.000302
  mass density: 998.2 ± 0.1 kg/m3
293 K, x1 = 0.000319
  mass density: 998.213 ± 0.1 kg/m3
293 K, x1 = 0.000341
  mass density: 998.199 ± 0.1 kg/m3
293 K, x1 = 0.000384
  mass density: 998.191 ± 0.1 kg/m3
293 K, x1 = 0.000407
  mass density: 998.175 ± 0.1 kg/m3
293 K, x1 = 0.000428
  mass density: 998.16 ± 0.1 kg/m3
298 K, x1 = 0.0027
  speed of sound: 1497.1 ± 1.2 m/s
298 K, x1 = 0.003
  speed of sound: 1497.2 ± 1.2 m/s
298 K, x1 = 0.0048
  speed of sound: 1497.4 ± 1.2 m/s
298 K, x1 = 0.0074
  speed of sound: 1497.8 ± 1.2 m/s
298 K, x1 = 0.0094
  speed of sound: 1498.1 ± 1.2 m/s
298 K, x1 = 0.0109
  speed of sound: 1498.3 ± 1.2 m/s
298 K, x1 = 0.0129
  speed of sound: 1498.5 ± 1.2 m/s
298 K, x1 = 0.0145
  speed of sound: 1498.7 ± 1.2 m/s
298 K, x1 = 0.0163
  speed of sound: 1499 ± 1.2 m/s
298 K, x1 = 0.0181
  speed of sound: 1499.2 ± 1.2 m/s
298 K, x1 = 0.0208
  speed of sound: 1499.6 ± 1.2 m/s
298 K, x1 = 0.0234
  speed of sound: 1499.8 ± 1.2 m/s
298 K, x1 = 0.0248
  speed of sound: 1500 ± 1.2 m/s
298 K, x1 = 0.0273
  speed of sound: 1500.2 ± 1.2 m/s
298 K, x1 = 0.0286
  speed of sound: 1500.3 ± 1.2 m/s
298 K, x1 = 0.0302
  speed of sound: 1500.3 ± 1.2 m/s
298 K, x1 = 0.0319
  speed of sound: 1500.5 ± 1.2 m/s
298 K, x1 = 0.0341
  speed of sound: 1500.5 ± 1.2 m/s
298 K, x1 = 0.0384
  speed of sound: 1500.5 ± 1.2 m/s
298 K, x1 = 0.0407
  speed of sound: 1500.7 ± 1.2 m/s
